Results published in PMC7203344, “Sirtuin 1 Inhibiting Thiocyanates (S1th)—A New Class of Isotype Selective Inhibitors of NAD^+ Dependent Lysine Deacetylases” (Frontiers in Oncology, 2020).

Tested on: HeLa cells
Assay: Wound healing assay with HeLa cells
Assay type: cell-based, human
Settings: 24 h; S1th 13 12 μM
Description: For wound healing assay 6 × 10^5 cells per well were seeded in 6-well plates and grown for 24 h in DMEM containing 10% FBS. After 24 h, a lineal gap between cells was created in the middle of the plate by scratching the cell monolayer with a 1 mL pipette tip in the same position in each well. Once the scratching is done, plates were washed twice with PBS and then grown in DMEM containing 1% FBS and the drugs in the same concentrations as for the proliferation assay. As described previously, the growth media 1% FBS containing the drugs was replaced every 48 h. Images were acquired in an Optimal microscope (Leica microscopes, DE) using Leica Application Suite X (LAS X) every 24 h (0, 24, 48, and 72 h) until the gap closed. The quantification of the area of the gap at the indicated times was performed with Image J-MRI Wound Healing Tool. The experiment was performed only once.

N#CSc1cccc(NS(=O)(=O)c2ccc3c(c2)OCCO3)c1 [S1th 13]
lower reduction of total wound area compared to control without drug: ~ 50%
